14 compounds from US20120283297A1, “OXADIAZOLE SUBSTITUTED INDAZOLE DERIVATIVES FOR USE AS SPHINGOSINE 1-PHOSPHATE 1 (S1P1) RECEPTOR AGONISTS” (GLAXO WELLCOME HOUSE, priority 2009, published 2012) can be followed below.

pEC50: −log10 of the molar value.

T1 sequence (P21453 whole entry, the tested form may be a part): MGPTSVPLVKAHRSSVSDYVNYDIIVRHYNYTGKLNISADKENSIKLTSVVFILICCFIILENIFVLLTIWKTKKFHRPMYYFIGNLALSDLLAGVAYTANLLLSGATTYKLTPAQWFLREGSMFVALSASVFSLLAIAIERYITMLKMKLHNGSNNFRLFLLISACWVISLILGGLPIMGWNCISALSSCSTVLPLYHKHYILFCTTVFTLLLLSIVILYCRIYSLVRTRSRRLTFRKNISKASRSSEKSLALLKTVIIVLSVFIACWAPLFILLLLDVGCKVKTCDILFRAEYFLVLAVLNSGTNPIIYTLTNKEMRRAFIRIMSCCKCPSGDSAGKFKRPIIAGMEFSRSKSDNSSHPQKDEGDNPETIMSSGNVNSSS

The experiment has as its target T1, S1P1 receptor (Homo sapiens, UniProt P21453).
T1 construct: TEV protease site; Gal4-VP16 transcription factor; expressed in transfected cells; host or cells: Tango GPCR-bla U2OS parental cell line (EDG1-bla/U2OS)
Kind of experiment: S1P1 Tango Assay. Type of experiment: cell-based. Particulars: agonist activity, recombinant EDG1-bla/U2OS cells, beta-lactamase FRET readout. The source says: The potencies and efficacies of the compounds of this invention for the S1P1 receptor can be determined by S1P1 Tango assay performed on the human cloned receptor as described herein.
Recombinant EDG1-bla/U2OS cells (contain the human Endothelial Differentiation Gene 1 (EDG1) linked to a TEV protease site and a Gal4-VP16 transcription factor stably integrated into the Tango GPCR-bla U2OS parental cell line) were harvested from growth medium and passaged into assay medium (Invitrogen Freestyle Expression Medium). The cells were starved for 24 hours at 37° C., 5% CO2, harvested and resuspended in assay medium at a density of ˜200,000 cells/ml. All test compounds were dissolved in DMSO at a concentration of 10 mM and were prepared in 100% DMSO to provide 10 point dose response curves. Test compounds prepared by Bravo (Velocity11) were added to wells in columns 2-11 and 13-22; DMSO was added to wells in columns 12 and 23 as unstimulated controls and assay medium was added to wells in columns 1 and 24 as cell-free controls. An S1P1 agonist was added to wells in row 2, columns 2-11 as stimulated controls and test compounds were added to wells in row 2, columns 13-22 and rows 3-15, columns 2-11/13-22 (row 1 and 16 were empty and not used). Compounds in solution were added to the assay plate (Greiner 781090) using an Echo (Labcyte) dose-response program (50 nl/well). The unstimulated and cell-free controls were loaded with 50 nl/well pure DMSO to ensure that the DMSO concentration was constant across the plate for all assays.
50 μl of the cell suspension was added to each well in columns 2-23 of the plate (˜10,000 cells per well). 50 μl of assay medium was added to each well in the cell-free controls (columns 1 and 24). The cells were incubated overnight at 37° C./5% CO2. 10 μl of 6× substrate mixture (LiveBLAzer™-FRET BIG substrate (CCF4-AM) Cat # K1096 from Invitrogen, Inc.) was added to each well using Bravo and the plates incubated at room temperature for 2 h in the dark. The plate was finally read on EnVision for two emission channels (460 nm and 530 nm).
The blue/green emission ratio (460 nm/530 nm) was calculated for each well, by dividing the background-subtracted Blue emission values by the background-subtracted Green emission values. The dose response curve is based on sigmoidal dose-response model. All ratio data was normalized based upon the maximum emission ratio of positive control and minimum emission ratio of negative control (DMSO) on each plate. The intrinsic activity (IA) of each compound would be the normalized percentage of its maximum response after curve fitting.
The pEC50 is the EC50 on a negative log10 scale, so that one unit is a factor of ten. With `CC(C)Oc1ccc(-c2nc(-c3ccc4[nH]ncc4c3)no2)cc1Cl` [Example 1, 5-(5-{3-Chloro-4-[(1-methylethyl)oxy]phenyl}-1,2,4-oxadiazol-3-yl)-1H-indazole], the pEC50 is no less than 9.00. For `CC(C)Oc1ncc(-c2nc(-c3cc4cn[nH]c4cc3Cl)no2)cc1Cl` [Example 19, 6-Chloro-5-(5-{5-chloro-6-[(1-methylethyl)oxy]-3-pyridinyl}-1,2,4-oxadiazol-3-yl)-1H-indazole], the pEC50 is 8.00 to 9.00. For `CC(C)Oc1ccc(-c2nc(-c3cccc4[nH]ncc34)no2)cc1Cl` [Example 4, 4-(5-{3-Chloro-4-[(1-methylethyl)oxy]phenyl}-1,2,4-oxadiazol-3-yl)-1H-indazole], the pEC50 is 7.00 to 8.00. Under `CC(C)Oc1ccc(-c2nc(-c3ccc4[nH]ncc4c3)no2)cc1C#N` [Example 2, 5-[3-(1H-Indazol-5-yl)-1,2,4-oxadiazol-5-yl]-2-[(1-methylethyl)oxy]benzonitrile] stands 8.00 to 9.00; under `CC(C)Oc1ncc(-c2nc(-c3ccc4c(cnn4CCCC(=O)O)c3)no2)cc1C#N` [Example 14, 4-[5-(5-{5-Cyano-6-[(1-methylethyl)oxy]-3-pyridinyl}-1,2,4-oxadiazol-3-yl)-1H-indazol-1-yl]butanoic acid], no less than 9.00; under `CC(C)Oc1ccc(-c2nc(-c3cccc4c3cnn4C3(CC(=O)O)COC3)no2)cc1Cl` [Example 8, {3-[4-(5-{3-Chloro-4-[(1-methylethyl)oxy]phenyl}-1,2,4-oxadiazol-3-yl)-1H-indazol-1-yl]-3-oxetanyl}acetic acid], 7.00 to 8.00. The figure for `CC(C)Oc1ncc(-c2nc(-c3ccc4c(cnn4CCC(=O)O)c3)no2)cc1Cl` [Example 10, 3-[5-(5-{5-Chloro-6-[(1-methylethyl)oxy]-3-pyridinyl}-1,2,4-oxadiazol-3-yl)-1H-indazol-1-yl]propanoic acid] is 7.00 to 8.00; for `CC(C)Oc1ncc(-c2nc(-c3cc4cnn(CCCC(=O)O)c4cc3F)no2)cc1Cl` [Example 17, 4-[5-(5-{5-Chloro-6-[(1-methylethyl)oxy]-3-pyridinyl}-1,2,4-oxadiazol-3-yl)-6-fluoro-1H-indazol-1-yl]butanoic acid] it is 7.00 to 8.00.

Regarding `CC(C)Oc1ccc(-c2nc(-c3cccc4c3cnn4CC(C)C(=O)O)no2)cc1Cl` (centres unmarked) [Example 5, 3-[4-(5-{3-Chloro-4-[(1-methylethyl)oxy]phenyl}-1,2,4-oxadiazol-3-yl)-1H-indazol-1-yl]-2-methylpropanoic acid], the pEC50 is 7.00 to 8.00. As for `CC(C)Oc1ccc(-c2nc(-c3cccc4c3cnn4CCCCC(=O)O)no2)cc1Cl` [Example 6, 5-[4-(5-{3-Chloro-4-[(1-methylethyl)oxy]phenyl}-1,2,4-oxadiazol-3-yl)-1H-indazol-1-yl]pentanoic acid], the pEC50 is 7.00 to 8.00. In the case of `CC(C)Oc1ncc(-c2nc(-c3ccc4[nH]ncc4c3)no2)cc1Cl` [Example 11, 5-(5-{5-Chloro-6-[(1-methylethyl)oxy]-3-pyridinyl}-1,2,4-oxadiazol-3-yl)-1H-indazole], the pEC50 is 7.00 to 8.00.

Turning to `CC(C)Oc1ccc(-c2nc(-c3cccc4c3cnn4CC(O)C(=O)O)no2)cc1Cl` (single isomer, unassigned) [Example 9, Lithium 3-[4-(5-{3-chloro-4-[(1-methylethyl)oxy]phenyl}-1,2,4-oxadiazol-3-yl)-1H-indazol-1-yl]-2-hydroxypropanoate], the pEC50 is 8.00 to 9.00.

Regarding `CC(C)Oc1ccc(-c2nc(-c3cccc4[nH]ncc34)no2)cc1C#N` [Example 3, 5-[3-(1H-Indazol-4-yl)-1,2,4-oxadiazol-5-yl]-2-[(1-methylethyl)oxy]benzonitrile], the pEC50 is no less than 9.00. The figure for `Cc1c(-c2noc(-c3cnc(OC(C)C)c(Cl)c3)n2)ccc2c1cnn2CCCC(=O)O` [Example 13, 4-[5-(5-{5-Chloro-6-[(1-methylethyl)oxy]-3-pyridinyl}-1,2,4-oxadiazol-3-yl)-4-methyl-1H-indazol-1-yl]butanoic acid] is 8.00 to 9.00.
